tested on: PI3K (p110β/p85α); assay: PI3K HTRF enzyme assay, p110β/p85α; format: biochemical; details: compound at 500 nM; 100 μM ATP
Method: Recombinant PI3K (p110α/p85α) and PI3K (p110β/p85α) were from Millipore. […] Briefly, the compounds of interest dissolved in 100% DMSO were dispensed in all wells, following which the mixture of PIP2 and enzyme was added. PI3K (p110α/p85α) and PI3K (p110β/p85α) enzyme reactions were initiated in the presence of 10 μM and 100 μM ATP, respectively, and incubated for 30 min at room temperature. STOP solution prepared 2 hours prior to use was added to stop reactions, and mixed well. Detection solution prepared 2 hours prior to use was added, and incubated at room temperature for 17 hours in the dark. […] HTRF ration was calculated as follows: […]

SMILES	% inhibition @ 500 nM p110β [%]
CSc1c(OCCN(C)C)nc(-c2cccc(O)c2)nc1N1CCOCC1 [MTR-0043, 3-[4-(2-Dimethylamino-ethoxy)-5-methylsulfanyl-6-morpholin-4-yl-pyrimidin-2-yl]-phenol]	44.80
CSc1c(Cl)nc(-c2ccc(NC(=O)Nc3ccc(F)cc3)cc2)nc1N1CCOCC1 [MTR-0135, 1-[4-(4-Chloro-5-methylsulfanyl-6-morpholin-4-yl-pyrimidin-2-yl)-phenyl]-3-(4-fluoro-phenyl)-urea]	14.20
CCOC(=O)c1nc(-c2ccc(NC(=O)Nc3cccc(F)c3)cc2)nc(N2CCOCC2)c1OCC [MTR-0147, 5-Ethoxy-2-{4-[3-(3-fluoro-phenyl)-ureido]-phenyl}-6-morpholin-4-yl-pyrimidine-4-carboxylic acid ethyl ester]	1.20
CCOc1c(CN2CCN(S(C)(=O)=O)CC2)nc(-c2ccc(NC(=O)Nc3ccccc3)cc2)nc1N1CCOCC1 [MTR-0169, 1-{4-[5-Ethoxy-4-(4-methanesulfonyl-piperazin-1-ylmethyl)-6-morpholin-4-yl-pyrimidin-2-yl]-phenyl}-3-phenyl-urea]	3.20
CSc1cnc(-c2ccc(NC(=O)Nc3ccc(F)cc3)cc2)nc1N1CCOCC1 [MTR-0178, 1-(4-Fluoro-phenyl)-3-[4-(5-methylsulfanyl-4-morpholin-4-yl-pyrimidin-2-yl)-phenyl]-urea]	8.20

More lines, now with the values ahead:

% inhibition @ 500 nM p110β [%]	SMILES
4.50	CSc1c(Cl)nc(-c2ccc(N)nc2)nc1N1CCOCC1 [MTR-0133, 5-(4-Chloro-5-methylsulfanyl-6-morpholin-4-yl-pyrimidin-2-yl)-pyridin-2-ylamine]
42.10	COc1cnc(-c2ccc(NC(=O)Nc3cccc(F)c3)cc2)nc1N1CCOCC1 [MTR-0164, 1-(3-Fluoro-phenyl)-3-[4-(5-methoxy-4-morpholin-4-yl-pyrimidin-2-yl)-phenyl]-urea]
21.80	CCOc1cnc(-c2ccc(NC(=O)Nc3ccc(N4CCOCC4=O)cc3)cc2)nc1-c1ccncc1 [MTR-0398, 1-[4-(5-Ethoxy-4-pyridin-4-yl-pyrimidin-2-yl)-phenyl]-3-[4-(3-oxo-morpholin-4-yl)-phenyl]-urea]

target: recombinant mTOR (Homo sapiens (Human), UniProt P42345); assay: mTOR kinase assay (33P incorporation into 4EBP1); format: biochemical; details: compound at 10 μM; 10 μM ATP; versus DMSO control
Sequence (P42345 1360-2549): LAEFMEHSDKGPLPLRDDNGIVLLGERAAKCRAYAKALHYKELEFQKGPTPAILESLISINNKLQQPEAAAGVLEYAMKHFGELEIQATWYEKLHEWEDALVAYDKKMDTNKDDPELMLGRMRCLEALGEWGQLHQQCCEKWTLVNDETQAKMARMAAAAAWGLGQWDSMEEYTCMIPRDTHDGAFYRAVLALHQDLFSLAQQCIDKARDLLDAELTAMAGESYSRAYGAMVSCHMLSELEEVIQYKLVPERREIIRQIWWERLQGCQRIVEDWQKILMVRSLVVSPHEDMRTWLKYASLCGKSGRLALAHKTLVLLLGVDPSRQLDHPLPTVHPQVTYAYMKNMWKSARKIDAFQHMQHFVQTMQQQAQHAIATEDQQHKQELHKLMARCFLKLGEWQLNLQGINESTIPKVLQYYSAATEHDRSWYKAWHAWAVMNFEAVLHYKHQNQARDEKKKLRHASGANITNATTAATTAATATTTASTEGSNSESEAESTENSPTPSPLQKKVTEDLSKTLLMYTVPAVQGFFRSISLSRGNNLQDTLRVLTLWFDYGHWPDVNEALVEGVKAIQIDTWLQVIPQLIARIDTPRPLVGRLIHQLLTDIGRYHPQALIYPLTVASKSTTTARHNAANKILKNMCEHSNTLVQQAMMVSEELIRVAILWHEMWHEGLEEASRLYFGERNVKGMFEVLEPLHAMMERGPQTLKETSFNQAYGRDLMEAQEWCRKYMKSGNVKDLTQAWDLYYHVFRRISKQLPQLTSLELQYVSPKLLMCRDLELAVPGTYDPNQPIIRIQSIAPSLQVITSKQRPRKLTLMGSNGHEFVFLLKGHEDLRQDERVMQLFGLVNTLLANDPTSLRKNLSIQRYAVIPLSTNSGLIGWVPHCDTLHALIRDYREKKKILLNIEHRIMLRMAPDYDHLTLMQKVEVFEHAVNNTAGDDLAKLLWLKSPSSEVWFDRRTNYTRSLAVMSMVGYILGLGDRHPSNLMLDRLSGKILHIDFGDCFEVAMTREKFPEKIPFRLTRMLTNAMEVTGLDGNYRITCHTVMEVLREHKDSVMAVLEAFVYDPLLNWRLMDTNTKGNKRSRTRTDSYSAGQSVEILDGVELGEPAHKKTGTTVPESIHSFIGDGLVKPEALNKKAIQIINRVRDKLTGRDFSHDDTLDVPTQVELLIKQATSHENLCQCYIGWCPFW
Method: The activity of the compound against mTOR was examined by measuring the incorporation of ^33P from [γ-^33P]-ATP into 4EBP1. His-tagged, recombinant human 4EBP1 was expressed in E. coli, purified by nickel-nitrilotriacetic acid (Ni-NTA) resins, and stored at −80° C. Phosphorylation of 4EBP1 by mTOR was assayed in the presence or absence of the compound and performed in a final volume of 25 μl reaction buffer containing 300 ng 4EBP1, 50 ng recombinant mTOR (Invitrogen), 50 mM HEPES (pH 7.5), 1 mM EGTA, 0.01% Polysorbate 20, 10 mM MnCl2, 2.5 mM DTT, 10 μM ATP, and 0.5 μCi [γ-33P]-ATP (PerkinElmer) for 30 min at 30° C. The reactions were terminated by adding 3% phosphoric acid. The ^33P labeled 4EBP1 was transferred onto UniFilter-96 GF/B plate (PerkinElmer) and quantified by Top Count Microplate Scintillation Counter (PerkinElmer). For primary screening of kinase activity inhibition, each test compound was evaluated at […] in duplicate. […] The IC50 values of the compounds were determined after carrying out assays at eight serially diluted concentrations of each compound in duplicate. The results were analyzed using […] software (GraphPad Prism 5; GraphPad Software Inc.).
IC50 value is defined as the concentration of the test compound which achieves a half-maximal inhibition of the kinase activity.

% Inhibition @ 10 μM [%]	SMILES
88	COc1c(-c2ccc(N)cc2)nc(-c2ccc(N)cc2)nc1N1CCOCC1 [MTR-0483]
